Measurements: article PMC8501045, “Addressing MRSA infection and antibacterial resistance with peptoid polymers” (Nature Communications, 2021)
Converted amounts (≈) assume the structure as drawn. “And” between values parts separate entries of the source, which are not always exact repeats. Equal entries are not always repeated.

Experiments:
[1] = test system: L. monocytogenes 1001; assay: MIC assay, clinical isolate; type: cell-based, Listeria monocytogene; conditions: Listeria monocytogenes, 1001
Protocol: MRSA (S. aureus Mu50, S. aureus Newman, S. aureus USA400, S. aureus USA300 LAC, S. aureus USA300) were obtained from Shanghai Institute of Materia Medica, Chinese Academy of Sciences. All clinically isolated Gram-positive bacteria used in this study were isolated from patients with various infections, different ages and sexes in the Shanghai Ruijin Rehabilitation Hospital. All strains were cultured in Luria-Bertani (LB) medium at 37 °C before use.
Bacteria were cultured in LB medium at 37 °C for 10 h, and then the bacterial suspension was diluted in Mueller–Hinton (MH) medium to a cell density of 2 × 10^5 colony forming units (CFU)/mL as the working suspension. The poly(Naeg)20 was serially diluted by MH medium in a 96-well plate, and an equal volume of bacterial suspension was added into each well. The final concentration of the poly(Naeg)20 was ranging from 200 to 1.56 μg/mL, and the plates were incubated at 37 °C for 9 h. Wells with inoculum and no polymer were used as the positive control; wells with only MH medium were used as the blank. The optical density (OD) in each well was measured on a Molecular Devices SpectraMax M2 precision microplate reader. The percentage of bacteria growth was calculated from1 %cellgrowth=A600polymer-A600blank/A600control-A600blank×100
(§1) The test was independently repeated at least three times.

[2] = test system: S. aureus ATCC6538; assay: Bacterial killing kinetics; type: cell-based, Staphylococcus aureus; conditions: after 4 h of treatment
[3] = test system: S. aureus USA300 mature biofilm; assay: Activity against mature biofilm; type: cell-based, Staphylococcus aureus; conditions: for Biofilm survival(%): vancomycin, r4-r9 = 32, 64, 128, 256, 512, 1024 MIC
Protocol: The plate was incubated at 37 °C for 24 h to allow biofilm formation. […] Then MTT assay was used to determine the biofilm viability. Wells containing inoculum and without antibacterial agents were used as the positive control; wells containing only MH medium were used as the blank. The percentage of surviving cells within biofilm was calculated from5 %cellviability=A570polymer-A570blank/A570control-A570blank×100
as §1

[4] = test system: S. aureus USA300 LAC; assay: Mouse full-thickness wound infection model, MRSA; type: in vivo; conditions: 1.56 mg/mL topical
Protocol: This infection model was conducted according to the previously reported method with slight modification. Female balb/c mice (20–21 g) were used in the full-thickness wound model caused by MRSA. Prior to surgery, mice were anesthetized with an intraperitoneal injection of sodium pentobarbital at a dose of 75 mg/kg. The dorsal hair was shaved, and the skin was rinsed with 75% alcohol three times. The 6-mm-diameter full-thickness wounds were punctured on either side of the back using a biopsy punch. An aliquot of 10 µL S. aureus USA300 LAC suspension (1.25 × 10^5 CFU/mL) was added to wound site. The wound site was covered by Tegaderm dressing (3 M, St Paul, MN) to prevent contamination. […] The treatments were applied every 4 h for a total of three times. After the last treatment for 4 h, mice were euthanized with an overdose of sodium pentobarbital. The wound sites were excised, weighed, and homogenized in PBS containing 0.1% TX-100. Then the homogenate was serially diluted for plating on LB agar. After incubation at 37 °C for 14 h, the number of colonies on the plate was counted to calculate the bacteria burden of wounds.

[5] = test system: S. aureus USA300 LAC biofilm; assay: Mouse keratitis model, MRSA biofilm on contact lens; type: in vivo; conditions: 1.56 mg/mL topical
Protocol: The contact lenses were cut into discs with a diameter of 3.5 mm and placed in a 96-well plate. The discs were soaked with 150 μL of MH medium overnight. Then the discs were transferred to a new 96-well plate and 150 μL of S. aureus USA300 LAC suspension (10^5 CFU/mL in MH medium) was added into corresponding wells. The plate was incubated at 37 °C with shaking at 100 rpm. After 2 h incubation, the suspension was aspirated and the lenses were washed with PBS to remove any nonadherent cells, followed by the addition of 150 μL of fresh MH medium. The plate containing the contact lenses with adhered cells was incubated at 37 °C with shaking at 100 rpm for 18 h to allow biofilm formation.
Male balb/c mice (22–24 g) were intraperitoneally injected with cyclophosphamide (150 mg/kg at 4 days and 100 mg/kg at 1 day before inducing keratitis) for immunosuppression. […] In addition, 0.5% tetracaine hydrochloride eye drops were used as topical anesthesia and then a 2 mm-diameter filter paper disc containing 2 μL of 99% 1-heptanol was placed on the center of the cornea for 15 min. […] All mice were killed and the eyeballs of each mouse were collected immediately 30 min after the last treatment, followed by the quantitative analysis of bacterial burden.

[6] = test system: S. haemolyticus 0202; assay: Mouse peritonitis model, survival test, S. haemolyticus; type: in vivo; conditions: i.p. 20 mg/kg, 7 days
Protocol: This infection model was conducted according to the previously reported method with slight modification. Female ICR mice (21–24 g) were used for MRSA-infected peritonitis model. Mice were infected by intraperitoneal administration of 0.2 mL of S. aureus USA300 LAC in saline (7.5 × 10^8 CFU/mL) supplemented with 5% mucin. […] Once the infected mice died, peritoneal lavage was performed by injecting 3.0 mL of saline into the peritoneal cavity and massaging the abdomen. Subsequently, the abdomen was opened and peritoneal fluid was recovered from the abdominal cavity for analysis. Blood samples were collected through cardiac puncture for analysis of CFU/mL. Then, different organs including the heart, liver, spleen, lung, and kidney were removed and homogenized in 0.1% TX-100 solution. The homogenate was serially diluted for plating on LB agar. After incubation at 37 °C for 14 h, the number of colonies on the plate was counted to calculate the bacteria burden. Surviving mice were euthanized at 48 h after infection. The blood, peritoneal fluid, and organs were collected for the determination of bacterial colonies. […] For the pretreatment group, mice were sacrificed and tissues were harvested to determine the CFU at 1 h post infection. […]

[7] = test system: S. haemolyticus 0202; assay: Mouse peritonitis model, CFU in organs, blood and IP fluid, S. haemolyticus; type: in vivo; conditions: Figure 6f
Protocol: This infection model was conducted according to the previously reported method with slight modification. Female ICR mice (21–24 g) were used for MRSA-infected peritonitis model. Mice were infected by intraperitoneal administration of 0.2 mL of S. aureus USA300 LAC in saline (7.5 × 10^8 CFU/mL) supplemented with 5% mucin. […] Once the infected mice died, peritoneal lavage was performed by injecting 3.0 mL of saline into the peritoneal cavity and massaging the abdomen. Subsequently, the abdomen was opened and peritoneal fluid was recovered from the abdominal cavity for analysis. Blood samples were collected through cardiac puncture for analysis of CFU/mL. Then, different organs including the heart, liver, spleen, lung, and kidney were removed and homogenized in 0.1% TX-100 solution. The homogenate was serially diluted for plating on LB agar. After incubation at 37 °C for 14 h, the number of colonies on the plate was counted to calculate the bacteria burden. Surviving mice were euthanized at 48 h after infection. The blood, peritoneal fluid, and organs were collected for the determination of bacterial colonies. […] For the pretreatment group, mice were sacrificed and tissues were harvested to determine the CFU at 1 h post infection.
For experiments of S. epidermidis and S. haemolyticus infections, female ICR mice (22–24 g) were rendered neutropenic by treatment with 150 and 100 mg/kg of cyclophosphamide intraperitoneally at 4 days and 1 day prior to infection. Mice were infected by intraperitoneal administration of 0.2 mL of S. epidermidis 9397 (5.1 × 10^9 CFU/mL) or S. haemolyticus 0202 (2.6 × 10^9 CFU/mL) in saline. Other experiment conditions were similar to those in MRSA peritonitis model.

CN[C@H](CC(C)C)C(=O)N[C@H]1C(=O)N[C@@H](CC(N)=O)C(=O)N[C@H]2C(=O)N[C@H]3C(=O)N[C@H](C(=O)N[C@H](C(=O)O)c4cc(O)cc(O)c4-c4cc3ccc4O)[C@H](O)c3ccc(c(Cl)c3)Oc3cc2cc(c3O[C@@H]2O[C@H](CO)[C@@H](O)[C@H](O)[C@H]2O[C@H]2C[C@](C)(N)[C@H](O)[C@H](C)O2)Oc2ccc(cc2Cl)[C@H]1O [Vancomycin]
MIC [1]: 0.39 µg/mL (≈ 0.269 µM)
reduction of the bacteria [2]: about 0.3 log
concentration that eradicates mature biofilms of S. aureus [3]: > 1024 × MIC
Biofilm survival(%) ([3]; replicate 1): 57.1927% and 41.3774% and 45.7038% and 29.4643% and 29.3131% and 28.1882%
Biofilm survival(%) ([3]; replicate 2): 57.8677% and 50.7936% and 39.7472% and 30.2942% and 28.1255% and 26.0416%
reduction in the bacterial burden on the wound compared with the saline group [4]: ~ 1.2 log
reduction of the bacterial load of each eye of the mouse [5]: ineffective
survival of the mice [6]: 100%
Log10(CFU/mL IP fluid) ([7]; individual mouse 1 of 6): 3.226 Log10(CFU/mL)
Log10(CFU/mL IP fluid) ([7]; individual mouse 2 of 6): 4.392 Log10(CFU/mL)
Log10(CFU/mL IP fluid) ([7]; individual mouse 3 of 6): 3.853 Log10(CFU/mL)
Log10(CFU/mL IP fluid) ([7]; individual mouse 4 of 6): 4.647 Log10(CFU/mL)
Log10(CFU/mL IP fluid) ([7]; individual mouse 5 of 6): 4.595 Log10(CFU/mL)
Log10(CFU/mL IP fluid) ([7]; individual mouse 6 of 6): 4.235 Log10(CFU/mL)
Log10(CFU/mL Blood) ([7]; individual mouse 1 of 6): 3.398 Log10(CFU/mL)
Log10(CFU/mL Blood) ([7]; individual mouse 2 of 6): 3.213 Log10(CFU/mL)
Log10(CFU/mL Blood) ([7]; individual mouse 3 of 6): 2.602 Log10(CFU/mL)
Log10(CFU/mL Blood) ([7]; individual mouse 4 of 6): 3.336 Log10(CFU/mL)
Log10(CFU/mL Blood) ([7]; individual mouse 5 of 6): 2.62 Log10(CFU/mL)
Log10(CFU/mL Blood) ([7]; individual mouse 6 of 6): 0 Log10(CFU/mL)
Log10(CFU/g Heart) ([7]; individual mouse 1 of 6): 4.437 Log10(CFU/g)
Log10(CFU/g Heart) ([7]; individual mouse 2 of 6): 5.504 Log10(CFU/g)
Log10(CFU/g Heart) ([7]; individual mouse 3 of 6): 4.593 Log10(CFU/g)
Log10(CFU/g Heart) ([7]; individual mouse 4 of 6): 5.198 Log10(CFU/g)
Log10(CFU/g Heart) ([7]; individual mouse 5 of 6): 4.862 Log10(CFU/g)
Log10(CFU/g Heart) ([7]; individual mouse 6 of 6): 5.445 Log10(CFU/g)
Log10(CFU/g Kidney) ([7]; individual mouse 1 of 6): 4.477 Log10(CFU/g)
Log10(CFU/g Kidney) ([7]; individual mouse 2 of 6): 5.326 Log10(CFU/g)
Log10(CFU/g Kidney) ([7]; individual mouse 3 of 6): 5 Log10(CFU/g)
Log10(CFU/g Kidney) ([7]; individual mouse 4 of 6): 5.151 Log10(CFU/g)
Log10(CFU/g Kidney) ([7]; individual mouse 5 of 6): 5.103 Log10(CFU/g)
Log10(CFU/g Kidney) ([7]; individual mouse 6 of 6): 6.713 Log10(CFU/g)
Log10(CFU/g Liver) ([7]; individual mouse 1 of 6): 4.477 Log10(CFU/g)
Log10(CFU/g Liver) ([7]; individual mouse 2 of 6): 5.908 Log10(CFU/g)
Log10(CFU/g Liver) ([7]; individual mouse 3 of 6): 4.978 Log10(CFU/g)
Log10(CFU/g Liver) ([7]; individual mouse 4 of 6): 5.097 Log10(CFU/g)
Log10(CFU/g Liver) ([7]; individual mouse 5 of 6): 5.108 Log10(CFU/g)
Log10(CFU/g Liver) ([7]; individual mouse 6 of 6): 5.286 Log10(CFU/g)
Log10(CFU/g Lung) ([7]; individual mouse 1 of 6): 5.45 Log10(CFU/g)
Log10(CFU/g Lung) ([7]; individual mouse 2 of 6): 5.572 Log10(CFU/g)
Log10(CFU/g Lung) ([7]; individual mouse 3 of 6): 6.099 Log10(CFU/g)
Log10(CFU/g Lung) ([7]; individual mouse 4 of 6): 5.247 Log10(CFU/g)
Log10(CFU/g Lung) ([7]; individual mouse 5 of 6): 5.56 Log10(CFU/g)
Log10(CFU/g Lung) ([7]; individual mouse 6 of 6): 6.002 Log10(CFU/g)
Log10(CFU/g Spleen) ([7]; individual mouse 1 of 6): 6.652 Log10(CFU/g)
Log10(CFU/g Spleen) ([7]; individual mouse 2 of 6): 7.228 Log10(CFU/g)
Log10(CFU/g Spleen) ([7]; individual mouse 3 of 6): 6.728 Log10(CFU/g)
Log10(CFU/g Spleen) ([7]; individual mouse 4 of 6): 6.799 Log10(CFU/g)
Log10(CFU/g Spleen) ([7]; individual mouse 5 of 6): 6.226 Log10(CFU/g)
Log10(CFU/g Spleen) ([7]; individual mouse 6 of 6): 6.995 Log10(CFU/g)
